Data as given in patent US20250188030A1, “Biphenyl and Phenylpyridine Compounds” (Pfizer Inc., priority 2023, published 2025).
“Also recorded” adds a separate entry of the source. Where two headings read alike, the source gives them in different places.

Key:
H3K9AC (HT1080 cells) = assay: H3K9AC Sandwich ELISA Assay in HT1080 cells (KAT2A primary cell-based screening assay); set-up: species or system Human
Summary of the method: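 Acetylated H3K9 quantified by luminescent sandwich ELISA (total H3 capture, H3K9ac detection) on HCl lysates of HT1080 cells. Cells had 24 h compound exposure at 37 °C, top concentration 10 µM, 10-point 3-fold series, 0.1% DMSO; IC50 from four-parameter fitting.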

MM.1S cells = assay: MM1.S 10 Day Proliferation Assay (CellTiter-Glo); format: cell-based, Human; conditions: Homo sapiens, MM1.S, 240 h
Summary of the method: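 MM.1S cells, 500/well in ultra-low-attachment plates, were pre-incubated 16 h, then exposed to a 10-point 1:3 dilution series (top 10 μM final, 0.1% DMSO) for 10 days at 37 °C, with compound-containing medium refreshed at day 5. Viability was read by CellTiter-Glo luminescence; IC50 came from four-parameter fit.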

KAT2A = KAT2A (Homo sapiens (Human), UniProt Q92830); assay: KAT2A acetyltransferase biochemical assay (RapidFire mass spectrometry, AcCoA to CoA)
KAT2B = KAT2B (Homo sapiens (Human), UniProt Q92831); assay: KAT2B acetyltransferase biochemical assay (RapidFire mass spectrometry, AcCoA to CoA)
[1] = Metabolite profile in hepatocytes, recombinant human UGT enzymes, and dog plasma and urine; format: in vitro ADME; conditions: hepatocytes (mouse, dog, human), plasma and urine from dogs
Description: The metabolite profile of 2-(2′-cyclobutyl-3′-fluoro-6-{[(1R,3R)-3-{[(7S)-7-fluoro-5-azaspiro[3.4]octane-7-carbonyl]amino}cyclopentyl]oxy}[1, 1′-biphenyl]-3-yl)-2-methylpropanoic acid (Example A1) assessed in hepatocytes (mouse, dog, human), recombinant human UGT enzymes, and plasma and urine from dogs.
General methods/reviews of obtaining metabolite profile and identifying metabolites of a compound are described in: DAVLIE, 0., et al., “Assessment of Three Human in Vitro Systems in the Generation of Major Human Excretory and Circulating Metabolites,” Chemical Research in Toxicology, 2009, 22(2):357-368; KING, R., “Chapter Three—Biotransformations in Drug Metabolism.” Drug Metabolism Handbook: Concepts and Applications in Cancer Research, edited by Ala F. Nassar et al., Wiley, 2022, 17-38; WU, Y., et al., “Metabolite Identification in Preclinical and Clinical Phase of Drug Development,” Current Drug Metabolism, 2021, 22(11):838-857; GODZIEN, J., et al., “Chapter Fifteen—Metabolite Annotation and Identification.” Comprehensive Analytical Chemistry, Elsevier, 2018, 415-445.

[2] = Homo sapiens, HT-1080, H3K9AC sandwich ELISA
[3] = KAT2A Ki at 1 μM AcCoA, 5 μM H3 1-21 peptide, 0.5 nM KAT2A, 90-minute reaction
[4] = read-out: KAT2A Ki at 1 μM AcCoA, 5 μM H3 1-21 peptide, 0.5 nM KAT2A, 90-minute reaction
[5] = read-out: KAT2B Ki at 1 μM AcCoA, 1 μM AcCoA, 5 μM H3 1-21 peptide, 0.5 nM KAT2B, 90-minute reaction

Sequence of KAT2B (Q92831 2-832): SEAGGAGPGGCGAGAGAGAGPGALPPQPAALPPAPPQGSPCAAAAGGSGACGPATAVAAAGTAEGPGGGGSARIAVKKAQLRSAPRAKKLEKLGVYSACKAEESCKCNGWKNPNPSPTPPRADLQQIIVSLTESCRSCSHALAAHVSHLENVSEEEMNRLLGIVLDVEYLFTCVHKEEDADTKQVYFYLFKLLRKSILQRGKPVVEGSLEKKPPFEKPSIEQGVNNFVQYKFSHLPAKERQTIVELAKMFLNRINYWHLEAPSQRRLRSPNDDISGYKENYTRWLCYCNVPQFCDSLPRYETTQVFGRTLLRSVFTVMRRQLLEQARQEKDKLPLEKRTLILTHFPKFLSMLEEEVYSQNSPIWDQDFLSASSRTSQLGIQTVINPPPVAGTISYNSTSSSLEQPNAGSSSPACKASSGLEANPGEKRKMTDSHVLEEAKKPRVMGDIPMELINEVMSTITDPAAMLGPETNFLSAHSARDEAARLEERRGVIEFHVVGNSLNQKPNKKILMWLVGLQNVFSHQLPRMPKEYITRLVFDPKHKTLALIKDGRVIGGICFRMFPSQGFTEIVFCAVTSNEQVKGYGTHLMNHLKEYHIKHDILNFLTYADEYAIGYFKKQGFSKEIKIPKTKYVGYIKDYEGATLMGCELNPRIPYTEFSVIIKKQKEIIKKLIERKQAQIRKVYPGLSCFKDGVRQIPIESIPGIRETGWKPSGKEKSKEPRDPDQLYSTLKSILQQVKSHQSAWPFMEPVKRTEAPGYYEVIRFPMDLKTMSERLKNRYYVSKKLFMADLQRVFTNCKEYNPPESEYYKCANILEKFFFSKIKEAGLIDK
Sequence of KAT2A (Q92830 whole entry): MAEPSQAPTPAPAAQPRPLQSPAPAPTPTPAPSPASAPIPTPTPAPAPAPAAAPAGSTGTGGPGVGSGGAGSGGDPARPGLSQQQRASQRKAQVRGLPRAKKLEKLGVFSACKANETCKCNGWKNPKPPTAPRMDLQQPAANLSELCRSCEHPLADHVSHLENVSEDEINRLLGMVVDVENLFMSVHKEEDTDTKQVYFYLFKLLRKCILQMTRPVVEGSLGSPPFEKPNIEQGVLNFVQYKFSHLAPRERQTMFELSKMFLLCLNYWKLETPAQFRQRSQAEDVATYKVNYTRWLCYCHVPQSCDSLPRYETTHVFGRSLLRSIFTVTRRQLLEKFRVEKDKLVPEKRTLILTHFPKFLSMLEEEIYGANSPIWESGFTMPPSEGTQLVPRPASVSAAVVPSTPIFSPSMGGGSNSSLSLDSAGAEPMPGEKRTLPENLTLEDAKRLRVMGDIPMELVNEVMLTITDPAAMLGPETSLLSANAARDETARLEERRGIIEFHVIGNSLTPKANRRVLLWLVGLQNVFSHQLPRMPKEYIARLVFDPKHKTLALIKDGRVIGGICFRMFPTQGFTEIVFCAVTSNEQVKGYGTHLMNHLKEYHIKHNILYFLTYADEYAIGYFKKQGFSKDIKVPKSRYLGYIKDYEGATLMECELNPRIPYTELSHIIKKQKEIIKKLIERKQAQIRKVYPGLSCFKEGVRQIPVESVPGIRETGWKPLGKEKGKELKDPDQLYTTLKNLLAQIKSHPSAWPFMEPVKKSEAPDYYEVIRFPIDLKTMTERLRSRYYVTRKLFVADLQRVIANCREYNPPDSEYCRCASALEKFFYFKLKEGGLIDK

SMILES | IC50 (H3K9AC (HT1080 cells); [2]) [nM] | IC50 (MM.1S cells) [nM] | Ki (KAT2A; [3]) [nM] | Ki (KAT2B) [nM] | IC50 (H3K9AC (HT1080 cells); H3K9AC sandwich ELISA) [nM] | Ki (KAT2A; [4]) [nM] | Ki (KAT2B; [5]) [nM] | additional metabolites observed [1] | most significant metabolite observed [1]
CN1CC(C)(C)C[C@H]1C(=O)N[C@@H]1CC[C@@H](Oc2ccc(-c3cn(C)nc3C(=O)O)cc2-c2cccc(F)c2C2CCC2)C1 [Example J1, 4-[2′-cyclobutyl-3′-fIuoro-6-({(1R,3R)-3-[(1,4,4-trimethyl -L-prolyl)amino]cyclopentyl}oxy)[1,1′-biphenyl]-3-yl]-1-methyl-1H-pyrazole-3-carboxylic acid] | 14.9 | 8.43 | 0.41 | 0.74 |  |  |  |  | 
CN1CC(C)(C)C[C@H]1C(=O)N[C@@H]1CC[C@@H](Oc2ccc(C(C)(C)C(=O)NS(C)(=O)=O)cc2-c2cccc(F)c2C2CCC2)C1 [Example E1, N-{(1R,3R)-3-[(2′-cyclobutyl-3′-fluoro-5-{1-[(methanesulfonyl)amino]-2-methyl-1-oxopropan-2-yl}[1, 1′-biphenyl]-2-yl)oxy]cyclopentyl}-1,4,4-trimethyl-L-prolinamide] | 5.06 | 31.5 |  |  |  | 0.15 | 0.38 |  | 
CN1CC(C)(C)C[C@H]1C(=O)N[C@@H]1CC[C@@H](Oc2cccc(C(=O)NS(=O)(=O)N3CC(F)C3)c2-c2cccc(F)c2C2CCC2)C1 (atropisomer, axis not shown) [Example I12, N-[(1R,3R)-3-({(1ψ)-2′-cyclobutyl-3′-fluoro-6-[(3-fluoroazetidine-1-sulfonyl)carbamoyl][1,1′-biphenyl]-2-yl}oxy)cyclopentyl]-1,4,4-trimethyl-L-prolinamide] | 6.43 | 123 |  |  |  | 20.6 | 20.3 |  | 
CC(C)(C(=O)O)c1ccc(O[C@@H]2CC[C@@H](NC(=O)[C@@]3(F)CNC4(CCC4)C3)C2)c(-c2cccc(F)c2C2CCC2)c1 [Example A1, 2-(2′-cyclobutyl-3′-fluoro-6-{[(1R,3R)-3-{[(7S)-7-fluoro-5-azaspiro[3.4]octane-7-carbonyl]amino}cyclopentyl]oxy}[1,1′-biphenyl]-3-yl)-2-methylpropanoic acid] | 8.16 | 45.3 |  |  |  | 0.47 | 2.65 | CYP-mediated oxidation on the cyclobutane ring, the gem-dimethyl group and/or one or both of the biaryl rings; also recorded: direct glucose conjugate from UGT enzymes or chemical reaction | glucuronidation of the carboxylic acid group (Acyl glucuronide)

More lines, in order of falling IC50 (MM.1S cells), values ahead:

IC50 (H3K9AC (HT1080 cells); [2]) [nM] | IC50 (MM.1S cells) [nM] | Ki (KAT2A; [3]) [nM] | Ki (KAT2B) [nM] | IC50 (H3K9AC (HT1080 cells); H3K9AC sandwich ELISA) [nM] | Ki (KAT2A; [4]) [nM] | Ki (KAT2B; [5]) [nM] | SMILES | additional metabolites observed [1] | most significant metabolite observed [1]
 | 52 |  |  | 19.5 | 0.27 | 0.49 | Cn1cc(-c2ccc(O[C@@H]3CC[C@@H](NC(=O)[C@]4(F)CNC5(CCC5)C4)C3)c(-c3cccc(F)c3C3CCC3)c2)c(C(=O)O)n1 (single isomer, unassigned) [Example J10] |  | 
2.34 | 30.6 |  |  |  | 0.1 | 0.31 | CCc1c(F)cccc1-c1cc(C(C)(C)C(=O)NS(=O)(=O)C(C)C)ccc1O[C@@H]1CC[C@@H](NC(=O)[C@@]2(F)CNC3(CCC3)C2)C1 [Example C18, (7S)-N-[(1R,3R)-3-({2′-ethyl-3′-fluoro-5-[2-methyl-1-oxo-1-(propane-2-sulfonamido)propan-2-yl][1,1′-biphenyl]-2-yl}oxy)cyclopentyl]-7-fluoro-5-azaspiro[3.4]octane-7-carboxamide] |  | 
 | 3.5 | 0.02 | 0.07 | 1.5 |  |  | CC(C)S(=O)(=O)NC(=O)Cc1ccc(O[C@@H]2CC[C@@H](NC(=O)[C@]3(F)CNC4(CCC4)C3)C2)c(-c2cccc(F)c2C2CCC2)c1 (single isomer, unassigned) [Example C40] |  | 
